Test results published in EP2439195B1, “NAPHTHALENE CARBOXAMIDE DERIVATIVES AS INHIBITORS OF PROTEIN KINASE AND HISTONE DEACETYLASE, PREPARATION METHODS AND USES THEREOF” (Shenzhen Chipscreen Biosciences, Ltd., priority 2009, dated 2010).

How the values were obtained:
Assay type in all cases: in vivo
human A549 lung cancer = experiment: Nude mice tumor transplanted from human A549 lung cancer (Example 51); conditions: 40 mg/kg orally once a day for 24 days
Method: Then the cultured A549 human lung cancer cells were implanted into the armpit of 50 mice. […] Each group had 8 mice. One group was treated with vehicle. One group was treated with Sutent, the positive control drug. […] Each group was dosed orally once a day for 24 days. Tumor volumes along with body weights were recorded twice per week. On the next day after 24 doses, the mice were killed, and tumors were weighed. The tumor growth inhibition of each group was calculated using the following formula: {[(the average tumor weight of control group)-(the average tumor weight of test group)]/(the average tumor weight of control group)}×100%.

human HCT-8 colon cancer [1] = experiment: Nude mice tumor transplanted from human HCT-8 colon cancer (Example 52); conditions: 40 mg/kg orally once a day
Method: Female nu/nu mice of 18∼20g were fed by normal diet for 3 days. Then the cultured HCT-8 human colon cancer cells were implanted into the armpit of 50 mice. […] Each group had 8 mice. One group was treated with vehicle. One group was treated with Sutent, the positive control drug. […] Each group was dosed orally once a day for 24 days. Tumor volumes along with body weights were recorded twice per week. On the next day after 20 doses, the mice were killed, and tumors were weighed. The tumor growth inhibition of each group was calculated using the following formula: {[([…])} × 100%. [formula] The experimental results are shown in Table 6 and Figure 2.

[2] = system: SSMC7721 human liver cancer cells; experiment: Nude mice tumor transplanted from human SSMC7721 liver cancer (Example 53); conditions: 40 mg/kg orally once a day for 24 days
Method: Female nu/nu mice of 18∼20g were fed by normal diet for 3 days. Then the cultured SSMC7721 human liver cancer cells were implanted into the armpit of 50 mice. […] One group was treated with vehicle. One group was treated with Sutent, the positive control drug. […] Each group was dosed orally once a day for 24 days. […] The tumor growth inhibition of each group was calculated using the following formula: {[([…])} × 100%. [formula] The experimental results are shown in Table 7 and Figure 3.

human HCT-8 colon cancer [3] = experiment: Nude mice tumor transplanted from human HCT-8 colon cancer (Example 54); conditions: 40 mg/kg orally once a day for 20 days
Method: (§1) Female nu/nu mice of 18∼20g were fed by normal diet for 3 days. Then the cultured HCT-8 human colon cancer cells were implanted into the armpit of 50 mice. […] Each group had 8 mice. One group was treated with vehicle. One group was treated with Sutent, the positive control drug. Two groups were treated with compound 33 at different concentrations. The other two groups were treated with compound 34 at different concentrations. Each group was dosed orally once a day for 20 days. […] The tumor growth inhibition of each group was calculated using the following formula: {[(the average tumor weight of control group)-(the average tumor weight of test group)]/(the average tumor weight of control group)} × 100%. [formula] The experimental results are shown in Table 8 and Figure 4.

[4] = system: human SSMC7721 liver cancer; experiment: Nude mice tumor transplanted from human SSMC7721 liver cancer (Example 56); conditions: 40 mg/kg orally once a day for 30 days
Method: as §1, with “cultured SSMC7721” for “cultured HCT-8”, “human liver” for “human colon”, “compound 37” for “compound 34”, “for 30” for “for 20”, “Table 10” for “Table 8”, “Figure 6. Table10” for “Figure 4.”

CCN(CC)CCNC(=O)c1c(C)[nH]c(/C=C2\C(=O)Nc3ccc(F)cc32)c1C [Sutent, sunitinib, reference compound]
Tumor weight (human A549 lung cancer): 2.06 ± 0.71 g | Body weight (g) end (human A549 lung cancer; end): 24.4 ± 2.3 g | Body weight (g) start (human A549 lung cancer; start): 20.3 ± 1.4 g | TGI (%) (human A549 lung cancer; tumor growth inhibition): 50.9% | Body weight (g) end (human HCT-8 colon cancer [1]; end): 22.4 ± 1.1 g | Tumor weight (human HCT-8 colon cancer [1]; killed after 20 doses): 0.23 ± 0.07 g | Body weight (g) start (human HCT-8 colon cancer [1]; start): 21.5 ± 0.7 g | TGI (%) (human HCT-8 colon cancer [1]; tumor growth inhibition): 95.3% | Tumor weight [2]: 1.00 ± 0.68 g | Body weight (g) end ([2]; end): 24.8 ± 1.2 g | Body weight (g) start ([2]; start): 21.0 ± 0.8 g | TGI (%) ([2]; tumor growth inhibition): 70.3% | Tumor weight (human HCT-8 colon cancer [3]): 0.44 ± 0.15 g | Body weight (g) end (human HCT-8 colon cancer [3]; end): 22.1 ± 1.5 g | Body weight (g) start (human HCT-8 colon cancer [3]; start): 20.6 ± 1.2 g | TGI (%) (human HCT-8 colon cancer [3]; tumor growth inhibition): 89.1% | Tumor weight [4]: 0.88 ± 0.39 g | Body weight (g) end ([4]; end): 24.0 ± 0.6 g | Body weight (g) start ([4]; start): 21.2 ± 1.1 g | TGI (%) ([4]; tumor growth inhibition): 61.1%
